Laboratory results: PubChem BioAssay (NCI)
“And” between values parts separate entries of the source, which are not always exact repeats. Equal entries are not always repeated.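 96-well plates; 48 h exposure; 5 concentrations. Endpoints by linear interpolation between flanking doses. Not reached: highest tested concentration assigned. Here, GI50 denotes the concentration required for 50% inhibition of growth. TGI is the concentration that stops growth completely.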

How the values were obtained:
Test in all cases: NCI tumour cell line growth inhibition, 48 h
786-0 renal = tested on: 786-0 renal
A498 renal = tested on: A498 renal
ACHN renal = tested on: ACHN renal
CCRF-CEM leukemia = tested on: CCRF-CEM leukemia
HT29 colon = tested on: HT29 colon
KM12 colon = tested on: KM12 colon
LOX IMVI melanoma = tested on: LOX IMVI melanoma
NCI-H226 lung = tested on: NCI-H226 lung
NCI-H522 lung = tested on: NCI-H522 lung
RPMI-8226 leukemia = tested on: RPMI-8226 leukemia
U251 CNS = tested on: U251 CNS

Structure (SMILES) | TGI (786-0 renal) | TGI (A498 renal) | TGI (ACHN renal) | TGI (CCRF-CEM leukemia) [µM] | TGI (HT29 colon) | TGI (KM12 colon) | TGI (LOX IMVI melanoma) | TGI (NCI-H226 lung) | TGI (NCI-H522 lung) | TGI (RPMI-8226 leukemia) | TGI (U251 CNS) | GI50 (A498 renal) | GI50 (CCRF-CEM leukemia) | GI50 (KM12 colon) | GI50 (NCI-H522 lung) | GI50 (RPMI-8226 leukemia) | GI50 (HT29 colon) | GI50 (LOX IMVI melanoma) | GI50 (NCI-H226 lung) [µM] | GI50 (U251 CNS)
O=C1C2CCCCC2C(=O)N1n1c(Cc2ccc(Cl)cc2)n[nH]c1=O (stereo not drawn) | > 100 µM | > 100 µM | > 100 µM | > 100 | > 100 µM | > 100 µM | > 100 µM | > 100 µM | > 100 µM | > 100 µM | > 100 µM |  |  |  |  |  |  |  |  | 
CCOC(=O)c1cccc(NC(=O)CCl)c1 | 4.02 µM | 29.2 µM | 9.19 µM | 10.6 | 14.1 µM | 21.4 µM | 3.89 µM | 26 µM | 3.49 µM | 15.9 µM | 2.95 µM |  |  |  |  |  |  |  |  | 
C=CCC1(O)c2ccccc2C(=O)c2c(O)ccc(O)c21 (stereo not drawn) | 31.8 µM | 25.8 µM | 46.3 µM | 56.7 | > 62.4 µM | 30.1 µM | > 50.9 µM | > 43 µM | 8.11 µM | > 100 µM | 24.3 µM |  |  |  |  |  |  |  |  | 
Cc1ccc(C)n1-c1ccccc1C1SCCCS1 | > 100 µM | > 100 µM | > 100 µM | > 100 | > 100 µM | > 100 µM | > 100 µM | > 100 µM | > 100 µM | > 100 µM | > 100 µM |  |  |  |  |  |  |  |  | 
O=C1Oc2ccccc2C(=O)/C1=C/N1C(=O)N/C(=C\c2ccccc2O)C1=O | > 100 µM | > 100 µM | > 100 µM | > 100 | > 100 µM | > 100 µM | > 100 µM | > 100 µM | > 100 µM | > 100 µM | > 100 µM |  |  |  |  |  |  |  |  | 
O=C1NC(N/N=C\C(O)C(O)C(O)CO)=N/C1=C/c1ccccc1 (stereo not drawn) | > 100 µM | > 100 µM | > 100 µM | > 100 | > 100 µM | > 100 µM | > 100 µM | > 100 µM | > 100 µM | > 100 µM | > 100 µM | > 100 µM and 39.3 µM | 65.9 µM and 32.7 µM | > 100 µM and 28.1 µM | > 100 µM and 46.5 µM | > 100 µM and 33.7 µM |  |  |  | 
O=C1CSC2(CC(/C=C/c3ccccc3)=NN2c2cccc(S(=O)(=O)O)c2)N1c1nc2ccccc2s1 (stereo not drawn) | 33 µM | 64.3 µM | > 100 µM | 49.5 | > 100 µM | 38.3 µM | 23.7 µM | > 100 µM | 37 µM | 53.7 µM | 42.1 µM |  |  |  |  |  |  |  |  | 
O=C1C=CC2CCC1C2 (stereo not drawn) | > 100 µM | > 100 µM | > 100 µM | > 100 | > 100 µM | > 100 µM | > 100 µM | 98.5 µM | 65.9 µM | > 100 µM | > 100 µM |  |  |  |  |  |  |  |  | 
CC(C)(C)OC(=O)CN1CCNCCNCC1 | > 100 µM | > 100 µM | > 100 µM | > 100 | > 100 µM | > 100 µM | > 100 µM | > 100 µM | > 100 µM | > 100 µM | > 100 µM |  |  |  |  |  |  |  |  | 
O=S(=O)(Oc1ccc2oc3ccccc3c2c1-c1c(OS(=O)(=O)C(F)(F)F)ccc2oc3ccccc3c12)C(F)(F)F | > 100 µM | > 100 µM | > 100 µM | > 100 | > 100 µM | > 100 µM | > 100 µM | > 100 µM | > 100 µM | > 100 µM | > 100 µM |  |  |  |  |  |  |  |  | 
Cc1nc2c(=S)[nH]ncc2[nH]1 | > 100 µM | > 100 µM | > 100 µM | > 100 | > 100 µM | > 100 µM | > 100 µM | > 100 µM | > 100 µM | > 100 µM | > 100 µM |  |  |  |  |  |  |  |  | 
C=C1C(=O)OC2/C=C(\C)C(OC(C)=O)C3OC3C(C)(O)CC(OC(=O)/C(C)=C/C)C12 (stereo not drawn) | 16.4 µM | 32.1 µM | 31.7 µM | 9.45 | 32.7 µM | 28.7 µM | 30.4 µM | 23.4 µM | 3.37 µM | 28.2 µM | 24.5 µM |  |  |  |  |  |  |  |  | 
c1ccc(CNC2CC(NCc3ccccn3)CC(NCc3ccccn3)C2)nc1 (stereo not drawn) | 9.95 µM and 5.87 µM and 6.09 µM | 3.31 µM and 6.25 µM and 3.51 µM | 47.3 µM and 25 µM and 35.7 µM |  | 14.5 µM and 25 µM and 3.81 µM | 3.8 µM and 6 µM and 4.07 µM | 6.95 µM and 14.5 µM and 7.77 µM | 6.07 µM and 7.07 µM and 5.39 µM | 6.36 µM and 12.2 µM and 4.68 µM | 9.64 µM and 25 µM and 13.5 µM | 3.88 µM and 9.35 µM and 3.36 µM | 2.06 µM | 4.64 µM | 2.05 µM | 2.16 µM | 2.96 µM and 6.93 µM and 3.51 µM | 3.19 µM and 8.17 µM and 1.96 µM | 2.62 µM and 5.4 µM and 2.83 µM | 2.77 | 1.95 µM and 4.9 µM and 1.88 µM
C=C(C)[C@@H]1CC[C@]2(C(=O)O)CC[C@]3(C)[C@H](CC[C@@H]4[C@@]5(C)CC(=O)C(C)(C)[C@@H]5CC[C@]43C)[C@@H]12 | > 25 µM | 17.2 µM | > 25 µM | 2.86 | > 25 µM | > 25 µM | > 25 µM | > 25 µM | 19.7 µM | 11.6 µM | > 25 µM |  |  |  |  |  |  |  |  | 
CCc1nn(CN2CCN(C)CC2)c(=S)n1/N=C\c1ccc(-c2ccc([N+](=O)[O-])cc2)o1 | > 100 µM | 54.7 µM | > 100 µM | > 100 | > 100 µM | > 100 µM | > 100 µM | 86.4 µM | > 100 µM | > 100 µM | > 100 µM |  |  |  |  |  |  |  |  | 
